# Source: PMC8372404 (Frontiers in Neuroscience, 2021)
# Where a SMILES comes first, the peptide text is derived from it.
# What was measured:
# Danio rerio [1] = assay: Novel tank test (NTT); format: in vivo; conditions: for NTT. Time spent in upper half of tank, Median: 10 min after injection, 5 min; for NTT. Time spent in upper half of tank, Median / NTT. Distance traveled, Median: exp group
# Description: (§1) Control groups were treated in parallel with vehicle alone. For drug injection, the fish were anesthetized briefly by placing them in 10°C water. The vehicle controls were tested in parallel.
# (§2) Behavioral testing was initiated 10 min after drug injection, starting with the novel tank test (NTT), followed immediately thereafter by the light–dark box (LDB) and the social preference test (SPT). The NTT was adapted from [Maximino et al. (2013)] with the behavior video-recorded and the data processed using EthoVision XT14 (Noldus). The distance traveled, speed, number of visits to the bottom, middle and top thirds of the aquarium, respectively, and the times spent in each of these zones during the initial 5 min in the tank were recorded. A decreased time spent at the surface of the NTT apparatus reflects a reduction in exploratory behavior or increased hiding motivation ([Sackerman et al., 2010]). The behavior in the LDB ([Maximino et al., 2011]) and SPT ([Parker et al., 2014]) was video recorded and processed using RealTimer (Open Science LCC, Russia). The fish were added to the center zone of a three-zone aquarium and allowed to adapt for 1–2 min before removal of the septa separating the center from the flanking zones. The time spent and the number of visits to the light and dark flanking zones and the latency to enter the lit zone were recorded during a 5-min session. Stress of fish is associated with increased time spent in the dark compartment (scototaxis) ([Maximino et al., 2011]). For the SPT, the residence time and the number of visits to the three equally sized zones (near the shoal, in the center zone of the aquarium, and near the wall opposite to the shoal) were assessed during a 5-min session. Increased shoal preference (shoaling reflex) is thought to represent a protective response to a predator ([Nguyen et al., 2014]). All behavioral testing was done in the light phase using 500 lux (NTT, LDB) or 200 lux (SPT) illumination.
# Danio rerio [2] = assay: Light–dark box (LDB); format: in vivo; conditions: for LDB. Time spent in lit compartment, Median: 5 min session, exp group; for LDB, effect on time spent in the lit compartment vs vehicle: most informative dosage, Figure 2C
# Description: as §1, §2
# Danio rerio [3] = assay: Social preference test (SPT); format: in vivo; conditions: for SPT. Time spent out of shoaling zone, Median: 5 min session, exp group; for SPT, effect on time spent out of the shoaling zone vs vehicle: most informative dosage, Figure 2D
# Description: as §1, §2
# [4] = molecular target: [3H]-LCGA-17 binding site in rat brain membranes (putative α2δ); assay: [3H]-LCGA-17 radioligand competition binding assay; conditions: rat brain membranes
# BALB/c mice [5] = assay: Elevated plus maze (EPM); format: in vivo
# Description: The open field test (OFT) was used to assess locomotion. The total distance traveled in a 5 min session was recorded using Ethovision XT14 ([Prut and Belzung, 2003]). The elevated plus maze (EPM) and the marble burying test (MBT) were used to assess anxiolytic-like drug activity. For the EPM ([Pellow et al., 1985]), the percentage of time spent in the open arms, the percentage of open arm entries, and the number of total arm entries during a 5-min session were recorded using Ethovision. “Anxiety Index” (AI), an integrative behavioral measure in the EPM was calculated as follows: 100 × {1 − [(time spent on open arms/total time on the maze)/2 + (number of entries to the open arms/total exploration on the maze)/2]} ([Cohen et al., 2011]). The MBT ([Njung’e and Handley, 1991]) was carried out in a 19 × 29 × 13 cm cage filled 5 cm deep with wood-chip bedding. Twenty marbles (5.2 g, 15 mm diameter, randomly colored) were evenly placed on the surface of the bedding in four rows of five pieces. At the end of a 30 min test, the animal was removed, and the marbles buried in bedding by at least two-thirds were recorded. […] The forced swim test (FST) was used for a preliminary assessment of antidepressant drug activity as described ([Colelli et al., 2014]). Briefly, on day one the mice were exposed to a 10 min pre-swim in a cylinder filled with 24 ± 1°C water. The next day they were re-exposed to the same apparatus for a 5 min test session with the behavior video recorded. The total time spent immobile was quantitated off-line visually. The interval between sequential behavioral tests was 2–3 days with the sequence OFT, EPM, MBT, and FST. All the testing and data analyses were performed by experimenters blind to treatment.
# [6] = Preliminary pharmacokinetic studies; format: in vivo; conditions: preliminary and ongoing pharmacokinetic studies
# BALB/c mice [7] = assay: Open field test (OFT); format: in vivo; conditions: diazepam 0.75 mg/kg
# Description: (§3) The open field test (OFT) was used to assess locomotion. The total distance traveled in a 5 min session was recorded using Ethovision XT14 ([Prut and Belzung, 2003]). The elevated plus maze (EPM) and the marble burying test (MBT) were used to assess anxiolytic-like drug activity. For the EPM ([Pellow et al., 1985]), the percentage of time spent in the open arms, the percentage of open arm entries, and the number of total arm entries during a 5-min session were recorded using Ethovision. “Anxiety Index” (AI), an integrative behavioral measure in the EPM was calculated as follows: 100 × {1 − [(time spent on open arms/total time on the maze)/2 + (number of entries to the open arms/total exploration on the maze)/2]} ([Cohen et al., 2011]). The MBT ([Njung’e and Handley, 1991]) was carried out in a 19 × 29 × 13 cm cage filled 5 cm deep with wood-chip bedding. Twenty marbles (5.2 g, 15 mm diameter, randomly colored) were evenly placed on the surface of the bedding in four rows of five pieces. At the end of a 30 min test, the animal was removed, and the marbles buried in bedding by at least two-thirds were recorded. […] The next day they were re-exposed to the same apparatus for a 5 min test session with the behavior video recorded. The total time spent immobile was quantitated off-line visually. […]
# BALB/c mice [8] = assay: Marble burying test (MBT); format: in vivo; conditions: diazepam 0.75 mg/kg
# Description: as §3
# BALB/c mice [9] = assay: Forced swim test (FST); format: in vivo; conditions: LCGA-17 5 mg/kg (none of the other dosages); diazepam 0.75 mg/kg
# Description: as §3
# [10] = LCGA-17 20 mg/kg + bicuculline 5 mg/kg
# [11] = bicuculline study: LCGA-17 20 mg/kg or bicuculline 5 mg/kg alone
# [12] = LCGA-17 groups 1, 5, 10, 20 mg/kg combined
compound,measurement,setting,value
TrpAspGlnVal (WDQV; printed: TrpAspGlnVal) [LCGA-59],"NTT. Time spent in upper half of tank, Median",Danio rerio [1]; 1 mg/kg i.p.,69 s
same,"NTT. Distance traveled, Median",Danio rerio [1]; 1 mg/kg i.p.,1730 cm
same,"NTT. Time spent in upper half of tank, Median",Danio rerio [1]; 10 mg/kg,74 s
same,"NTT. Distance traveled, Median",Danio rerio [1]; 10 mg/kg,1636 cm
same,"LDB. Time spent in lit compartment, Median",Danio rerio [2]; 1 mg/kg i.p.,74 s
same,"LDB. Time spent in lit compartment, Median",Danio rerio [2]; 10 mg/kg,87 s
same,"LDB, effect on time spent in the lit compartment vs vehicle",Danio rerio [2],Neither fluvoxamine (5 mg/kg) nor LCGA-59 and LCGA-83 (10 mg/kg) affected the behavior
same,"SPT. Time spent out of shoaling zone, Median",Danio rerio [3]; 1 mg/kg i.p.,52 s
same,"SPT. Time spent out of shoaling zone, Median",Danio rerio [3]; 10 mg/kg,88 s
same,"SPT, effect on time spent out of the shoaling zone vs vehicle",Danio rerio [3],failed to affect behavior
CN1CCc2cc3c(cc2[C@H]1[C@@H]1OC(=O)c2c1ccc1c2OCO1)OCO3 [Bicuculline],IC50,"[4]; competition of [3H]-LCGA-17 (16 nM) binding, Table S1",> 100 µM
same,cross-reactivity with / competition at the [3H]-LCGA-17 binding site,[4]; result in words,no cross-reactivity
same,"EPM, effect of co-administered bicuculline on the LCGA-17 effect on % time on open arms",BALB/c mice [5]; [10],completely blocked
same,"EPM, effect of co-administered bicuculline on the LCGA-17 effect on open arm entries",BALB/c mice [5]; [10],reduced the LCGA-17 effect
same,"EPM, effect of cotreatment with bicuculline on the LCGA-17 effect on AI",BALB/c mice [5]; [10],reversed
same,"EPM, effect on open arm entries, single agent",BALB/c mice [5]; bicuculline 5 mg/kg alone,without effects
same,"EPM, effect on total arm entries","BALB/c mice [5]; bicuculline 5 mg/kg main effect, post hoc pairwise comparisons not significant",slightly reduced
same,"EPM, effect on % time on open arms, single agent",BALB/c mice [5]; [11],no effect
same,"EPM, effect on Anxiety Index (AI), single agent",BALB/c mice [5]; [11],without effects
"NC(=O)CC[C@H](NC(=O)[C@@H](N)Cc1ccccc1)C(=O)N[C@@H](CO)C(=O)N[C@@H](CCC(=O)O)C(=O)O [LCGA-17, PheGlnSerGlu] (H-FQSE-OH; N-terminus and C-terminus assumed)",in vivo half-life,[6],minutes
CN1C(=O)CN=C(c2ccccc2)c2cc(Cl)ccc21 [Diazepam],"NTT. Distance traveled, Median",Danio rerio [1]; 1.25 mg/kg,887 cm
same,"NTT. Distance traveled, Median",Danio rerio [1]; 5 mg/kg,595 cm
same,"LDB. Time spent in lit compartment, Median",Danio rerio [2]; 1.25 mg/kg,21 s
same,"LDB. Time spent in lit compartment, Median",Danio rerio [2]; 5 mg/kg,177 s
same,"LDB, effect on time spent in the lit compartment vs vehicle",Danio rerio [2],anxiolytic-like effect
same,"SPT. Time spent out of shoaling zone, Median",Danio rerio [3]; 1.25 mg/kg,20 s
same,"SPT. Time spent out of shoaling zone, Median",Danio rerio [3]; 5 mg/kg,21 s
same,"SPT, effect on time spent out of the shoaling zone vs vehicle",Danio rerio [3],anxiolytic-like effect
same,"EPM, effect on percentage of time spent on open arms vs vehicle","BALB/c mice [5]; mouse, in vivo",increased
same,"OFT, effect on distance traveled vs vehicle","BALB/c mice [7]; LCGA-17 5, 20 mg/ml as printed, 5 min session",modestly increased
same,"OFT, effect on distance traveled vs vehicle",BALB/c mice [7]; [12],increased
same,"MBT, effect on number of marbles buried vs vehicle","BALB/c mice [8]; LCGA-17 5, 20 mg/kg, 30 min test",reduced
same,"MBT, effect on number of marbles buried vs vehicle",BALB/c mice [8]; [12],reduced
same,"FST, effect on total time spent immobile vs vehicle",BALB/c mice [9],failed to affect the behavior
AspLysThrGlu (DKTE; printed: AspLysThrGlu) [LCGA-26],"NTT. Time spent in upper half of tank, Median",Danio rerio [1]; 1 mg/kg i.p.,58 s
same,"NTT. Distance traveled, Median",Danio rerio [1]; 1 mg/kg i.p.,1365 cm
same,"NTT. Time spent in upper half of tank, Median",Danio rerio [1]; 10 mg/kg,72 s
same,"NTT. Distance traveled, Median",Danio rerio [1]; 10 mg/kg,1445 cm
same,"LDB. Time spent in lit compartment, Median",Danio rerio [2]; 1 mg/kg i.p.,215 s
same,"LDB. Time spent in lit compartment, Median",Danio rerio [2]; 10 mg/kg,243 s
same,"SPT. Time spent out of shoaling zone, Median",Danio rerio [3]; 1 mg/kg i.p.,20 s
same,"SPT. Time spent out of shoaling zone, Median",Danio rerio [3]; 10 mg/kg,27 s
PheLeuProTyr (FLPY; printed: PheLeuProTyr) [LCGA-83],"NTT. Time spent in upper half of tank, Median",Danio rerio [1]; 1 mg/kg i.p.,73 s
same,"NTT. Distance traveled, Median",Danio rerio [1]; 1 mg/kg i.p.,1500 cm
same,"NTT. Time spent in upper half of tank, Median",Danio rerio [1]; 10 mg/kg,76 s
same,"NTT. Distance traveled, Median",Danio rerio [1]; 10 mg/kg,1589 cm
same,"LDB. Time spent in lit compartment, Median",Danio rerio [2]; 1 mg/kg i.p.,128 s
same,"LDB. Time spent in lit compartment, Median",Danio rerio [2]; 10 mg/kg,249 s
same,"LDB, effect on time spent in the lit compartment vs vehicle",Danio rerio [2],Neither fluvoxamine (5 mg/kg) nor LCGA-59 and LCGA-83 (10 mg/kg) affected the behavior
same,"SPT. Time spent out of shoaling zone, Median",Danio rerio [3]; 1 mg/kg i.p.,37 s
same,"SPT. Time spent out of shoaling zone, Median",Danio rerio [3]; 10 mg/kg,46 s
same,"SPT, effect on time spent out of the shoaling zone vs vehicle",Danio rerio [3],failed to affect behavior
"COCCCC/C(=N\OCCN)c1ccc(C(F)(F)F)cc1 [fluvoxamine, Fluvoxamine]","NTT. Time spent in upper half of tank, Median",Danio rerio [1]; 5 mg/kg,41 s
same,"NTT. Distance traveled, Median",Danio rerio [1]; 5 mg/kg,1267 cm
same,"NTT. Time spent in upper half of tank, Median",Danio rerio [1]; 10 mg/kg,32 s
same,"NTT. Distance traveled, Median",Danio rerio [1]; 10 mg/kg,1313 cm
same,"NTT, effect on time spent in the upper half of the tank vs vehicle","Danio rerio [1]; most informative dosage, Figure 2A: LCGA peptides 10 mg/kg, fluvoxamine 5 mg/kg, diazepam 5 mg/kg",anxiolytic-like effect
same,"LDB. Time spent in lit compartment, Median",Danio rerio [2]; 5 mg/kg,118 s
same,"LDB. Time spent in lit compartment, Median",Danio rerio [2]; 10 mg/kg,94 s
same,"LDB, effect on time spent in the lit compartment vs vehicle",Danio rerio [2],Neither fluvoxamine nor the other LCGA peptides affected the behavior
same,"SPT. Time spent out of shoaling zone, Median",Danio rerio [3]; 5 mg/kg,90 s
same,"SPT. Time spent out of shoaling zone, Median",Danio rerio [3]; 10 mg/kg,84 s
same,"SPT, effect on time spent out of the shoaling zone vs vehicle",Danio rerio [3],failed to affect behavior
